In article PMC10287898 (2023):

Key:
Experiment in all cases: ligand-induced self-cleavage, PAGE, SYBR Gold
[1] = system: II-R1-3 (DNA, aptamer) CATGACCACTAGGAGCATCTTTGGCGAGAAGACTCTGGATTCGGGGACCAGTTGCTGCTAGGGGAATAAATCTTTGGGCACCTAGTGGTCATG; conditions: 100 mM NaCl, 40 mM MgCl2, 1 mM ZnCl2, 50 mM HEPES, pH 7.05; for KD: apparent, half-maximal cleavage, 0.1-100 μM ligand; for ligand-induced cleavage: 30 min
[2] = system: II-R1-7 (DNA, aptamer) CATGACCACTAGGAGCATCTTTGGCGATCCTCGTCAGATGGTGAAGCAGACGTTTGGCTAGGGGAATAAATCTTTGGGCACCTAGTGGTCATG; conditions: 100 mM NaCl, 40 mM MgCl2, 1 mM ZnCl2; 50 mM HEPES, pH 7.05; apparent, half-maximal cleavage
[3] = system: II-R1-1 (DNA, aptamer) CATGACCACTAGGAGCATCTTTGGCGAGATCGGGAGAATCGGTGGCATTGGTGTCTCCTAGGGGAATAAATCTTTGGGCACCTAGTGGTCATG; conditions: 100 mM NaCl, 40 mM MgCl2, 1 mM ZnCl2; 50 mM HEPES, pH 7.05; apparent, half-maximal cleavage

KD [1] | KD [2] | KD [3] | ligand-induced cleavage ([1]; tested at 100 μM, no cleavage induced) | ligand-induced cleavage ([1]; 100 μM, fraction cleaved 0.235 (L-Phe 0.325)) | SMILES
6.8 ± 0.7 µM | 118.9 ± 11.7 µM | 71.6 ± 9.8 µM |  |  | N[C@@H](Cc1ccc(O)cc1)C(=O)O
4.8 ± 1.4 µM | 19.3 ± 2.4 µM | 20.3 ± 1.6 µM |  |  | N[C@@H](Cc1ccccc1)C(=O)O
 |  |  | no |  | N[C@H](Cc1ccccc1)C(=O)O
 |  |  |  | yes | NC(Cc1ccc(F)cc1)C(=O)O (racemic)
